According to paper PMC9208756, “A dual-target herbicidal inhibitor of lysine biosynthesis” (eLife, 2022):
Several values for one entry are separate records, joined by “and”; a condition that tells them apart may be missing. Identical values can stand only once. Like-named read-outs stand apart in the source and are kept apart here.

Assays:
AtDHDPR2 = target: T1, AtDHDPR2 (Arabidopsis thaliana, UniProt Q8LB01); assay: DHDPR enzyme inhibition assay, recombinant AtDHDPR2; format: biochemical
T1 construct: made in house
T1 sequence (Q8LB01 54-349): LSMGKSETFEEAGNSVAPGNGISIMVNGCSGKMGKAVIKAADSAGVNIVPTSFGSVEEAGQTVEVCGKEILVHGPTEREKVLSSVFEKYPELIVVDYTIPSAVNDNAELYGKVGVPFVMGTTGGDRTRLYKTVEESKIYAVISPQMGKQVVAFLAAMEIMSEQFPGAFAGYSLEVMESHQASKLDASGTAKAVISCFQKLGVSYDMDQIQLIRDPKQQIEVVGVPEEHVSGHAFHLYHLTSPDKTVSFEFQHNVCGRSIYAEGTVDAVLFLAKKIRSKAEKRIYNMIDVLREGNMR
Experimental: (§1) Briefly, reaction mixtures were incubated at 30℃ for 12 min before a second 60-s incubation following the addition of excess E. coli DHDPS (51 µg ml^−1) for generation of the DHDP substrate. The relevant DHDPR isoform (2.6 µg ml^−1) was added to initiate the reaction, and substrate turnover measured spectrophotometrically at 340 nm via the associated oxidation of the cofactor NADPH. Experiments were performed in technical triplicates.

AtDHDPR1 = target: T2, AtDHDPR1 (Arabidopsis thaliana, UniProt O80574); assay: DHDPR enzyme inhibition assay, recombinant AtDHDPR1; format: biochemical
T2 construct: made in house
T2 sequence (O80574 52-347): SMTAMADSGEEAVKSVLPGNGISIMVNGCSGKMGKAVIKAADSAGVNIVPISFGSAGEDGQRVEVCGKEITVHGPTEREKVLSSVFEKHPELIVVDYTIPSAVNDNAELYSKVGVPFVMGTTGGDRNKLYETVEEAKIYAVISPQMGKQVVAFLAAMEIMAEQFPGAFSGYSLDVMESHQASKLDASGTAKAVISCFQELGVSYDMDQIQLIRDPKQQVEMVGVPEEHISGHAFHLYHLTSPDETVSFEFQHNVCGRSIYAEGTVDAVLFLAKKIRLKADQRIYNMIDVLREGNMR
Experimental: as §1

AtDHDPR = assay: DHDPR enzyme inhibition, comparisons over both isoforms; format: biochemical, Arabidopsis thaliana
Experimental: as §1

AtDHDPS2 [1] = target: T3, AtDHDPS2 (Arabidopsis thaliana, UniProt Q9FVC8); assay: DHDPS enzyme inhibition assay, recombinant AtDHDPS2; format: biochemical
T3 construct: made in house
T3 sequence (Q9FVC8 40-365): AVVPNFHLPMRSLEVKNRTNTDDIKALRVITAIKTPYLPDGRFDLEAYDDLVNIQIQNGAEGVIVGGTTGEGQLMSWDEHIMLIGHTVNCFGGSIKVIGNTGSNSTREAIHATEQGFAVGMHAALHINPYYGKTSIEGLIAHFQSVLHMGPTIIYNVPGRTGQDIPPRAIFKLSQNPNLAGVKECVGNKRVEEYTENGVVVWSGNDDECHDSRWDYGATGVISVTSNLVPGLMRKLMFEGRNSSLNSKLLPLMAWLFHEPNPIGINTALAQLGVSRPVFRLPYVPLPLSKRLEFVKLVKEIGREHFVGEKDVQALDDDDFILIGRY

AtDHDPS1 = target: T4, AtDHDPS1 (Arabidopsis thaliana, UniProt Q9LZX6); assay: DHDPS enzyme inhibition assay, recombinant AtDHDPS1; format: biochemical
T4 construct: made in house
T4 sequence (Q9LZX6 40-365): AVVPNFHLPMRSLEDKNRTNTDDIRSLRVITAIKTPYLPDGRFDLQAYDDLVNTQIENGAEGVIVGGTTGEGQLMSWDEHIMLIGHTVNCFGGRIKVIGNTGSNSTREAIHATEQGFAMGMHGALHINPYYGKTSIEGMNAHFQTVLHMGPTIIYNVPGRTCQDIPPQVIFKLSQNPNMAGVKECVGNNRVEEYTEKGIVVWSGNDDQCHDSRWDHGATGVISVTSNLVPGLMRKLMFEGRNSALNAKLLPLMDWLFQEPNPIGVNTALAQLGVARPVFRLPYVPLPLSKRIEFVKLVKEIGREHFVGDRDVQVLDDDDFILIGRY

Lolium rigidum = assay: Herbicidal activity, pre-emergence treatment of soil-grown plants; format: in vivo
Experimental: . Pre-wet seed-raising soil (pH 5.5) (Biogro, Dandenong South, VIC, Australia) supplemented with 0.22% (wt/wt) Nutricote N12 Micro 140 day-controlled release fertiliser (Yates, Sydney, NSW, Australia) was used. Ten seeds were sown at a depth of 0.5 cm into pots of pre-wet soil, following stratification at 4℃ for 21 days in the dark. Compounds dissolved in DMSO were diluted to working concentrations in H2O containing 0.01% (vol/vol) Agral (Syngenta, North Ryde, NSW, Australia) to a final DMSO concentration of 2% (vol/vol). Treatments were given by pipetting 2.0 ml of MBDTA-2, vehicle control or positive control (chlorosulfuron PESTANAL [Sigma-Aldrich, North Ryde, NSW, Australia]) directly onto seeds upon sowing and on each of the subsequent 2 days. Plants were grown in a chamber at 22℃ under a 16 hr light (100 µmol m^−2 s^−1)/8 hr dark schedule for 14 days before photos were taken. Roots and shoots were separated prior to drying at 70℃ for 72 hr. Experiments were performed in biological triplicates.

AtDHDPS2 [2] = target: T3, AtDHDPS2; set-up: method as in Soares da Costa et al., 2021; conditions: previously reported; ref Soares da Costa et al., 2021; cited from earlier work
[3] = [HBDTA-2] 0.000125 M, replicates 1-3
[4] = [HBDTA-2] 0.0005 M, replicates 1-3
[5] = [HBDTA] 0.000125 M, replicates 1-3
[6] = [MBDTA-2] 0.000125 M, limiting substrate and cofactor, replicates 1-3
[7] = 1200 mg l^−1, three pre-emergence treatments, 14 days, vs vehicle
[8] = Treated, 1200 mg l^−1, biological triplicates

SMILES: O=C(O)CN1C(=O)S/C(=C\c2ccc(O)cc2)C1=O [HBDTA, (Z)-2-(5-(4-hydroxybenzylidene)-2,4-dioxothiazolidin-3-yl)acetic acid]
- remaining activity at 125 µM (AtDHDPR2; [3]): 65.7%
- remaining activity at 500 µM (AtDHDPR2; [4]): 0%
- IC50 (AtDHDPR2; substrate and cofactor at limiting concentrations, read-out: IC50 against AtDHDPR2): 155 ± 0.9 µM
- remaining activity at 125 µM (AtDHDPR1; [3]): 83.9%
- remaining activity at 250 µM (AtDHDPR1; [HBDTA-2] 0.00025 M, replicates 1-3): 8.06%
- remaining activity at 500 µM (AtDHDPR1; [4]): 0%
- IC50 (AtDHDPR1; substrate and cofactor at limiting concentrations, read-out: IC50 against AtDHDPR1): 169 ± 0.92 µM
- fold less potent at the DHDPR target site relative to MBDTA-2 (AtDHDPR; ratio of IC50 values): > 18 fold
- remaining activity at 125 µM (AtDHDPS2 [1]; [5]): 37%
- IC50 (AtDHDPS2 [1]; recombinant enzyme): 105 ± 1.04 µM
- remaining activity at 125 µM (AtDHDPS1; [5]): 31.1%
- IC50 (AtDHDPS1; recombinant enzyme): 100 ± 0.95 µM

SMILES: COc1ccc(/C=C2\SC(=O)N(CC(=O)O)C2=O)cc1 [MBDTA-2, (Z)-2-(5-(4-methoxybenzylidene)-2,4-dioxothiazolidin-3-yl)acetic acid]
- fold greater IC50 with excess vs limiting substrate and cofactor (AtDHDPR2; AtDHDPR2): 8 fold
- IC50 (AtDHDPR2; IC50 against AtDHDPR2, excess substrate and nucleotide cofactor, 10-fold above KM): 69.5 ± 1.06 µM
- IC50 (AtDHDPR2; IC50 against AtDHDPR2, substrate and cofactor at limiting concentrations): 8.58 ± 1.19 µM
- remaining activity at 125 µM (AtDHDPR2; [6]): 0%
- remaining activity at 250 µM (AtDHDPR2; [MBDTA-2] 0.00025 M, limiting substrate and cofactor, replicates 1-3): 0%
- remaining activity at 500 µM (AtDHDPR2; [MBDTA-2] 0.0005 M, saturating substrate and cofactor, replicates 1-3): 0.507%
- effect on germination and growth (Lolium rigidum; 1200 mg l^−1): inhibition of plant germination and growth
- fold reduction in root dry weight (Lolium rigidum; [7]): ~ 2 fold
- fold reduction in shoot dry weight (Lolium rigidum; [7]): ~ 5 fold
- fold reduction in shoot fresh weight (Lolium rigidum; [7]): ~ 4 fold
- Dry Weight, Roots (Lolium rigidum; [8]): 7 mg and 10 mg
- Dry Weight, Shoots (Lolium rigidum; [8]): 10 mg and 8 mg
- Fresh Weight, Roots (Lolium rigidum; [8]): 44 mg and 33 mg and 58 mg
- Fresh Weight, Shoots (Lolium rigidum; [8]): 71 mg and 107 mg and 109 mg
- IC50 (AtDHDPS2 [2]): 64 ± 1 µM
- fold greater IC50 with excess vs limiting substrate and cofactor (AtDHDPR1; AtDHDPR1): 10 fold
- IC50 (AtDHDPR1; IC50 against AtDHDPR1, excess substrate and nucleotide cofactor, 10-fold above KM): 72.7 ± 1.07 µM
- IC50 (AtDHDPR1; IC50 against AtDHDPR1, substrate and cofactor at limiting concentrations): 6.92 ± 0.92 µM
- remaining activity at 125 µM (AtDHDPR1; [6]): 9.11%
- remaining activity at 125 µM (AtDHDPR1; [MBDTA-2] 0.000125 M, saturating substrate and cofactor, replicates 1-3): 7.04%
- mechanism of inhibition (AtDHDPR; from IC50 shift with excess substrate and cofactor): competitive inhibitor
